Laboratory results from patent US20080091140A1, “Cardiac Reperfusion Methods and Devices” (priority 2006, published 2008).
Marks after values point to notes of the source that are not given here.

Columns and labels:
Type in all cases: in vivo, Female juvenile domestic swine
[1] = system: acute regional myocardial ischemia and reperfusion (LAD occlusion); assay: Echocardiographic LV ejection fraction
[2] = system: acute regional myocardial ischemia and reperfusion (LAD occlusion); assay: Survival of the reperfusion period; conditions: of 5 chloramphenicol TGT treated animals, to sacrifice at 2 h
Protocol: (§1) Methods: Female juvenile pigs (n=14) were used. All animals received 250 mg of aspirin and 100 U/Kg of heparin IV. Tying the mid Left Anterior Descending Artery (“LAD”) after distal TGT (Trans Guide wire Therapy) wire placement induced acute myocardial ischemia. The TGT system consisted of a 0.014 inch nitinol torquable guide wire and removable stopcock. The distal 30 mm tip was flexible and radio-opaque. Immediately proximal to the tip were delivery holes to facilitate TGT delivery. TGT was delivered after 30 minutes of ischemia. The distal coronary vascular bed was visualized by injection with radiographic contrast (n=2) and Evans blue (n=2). […] Suture removal allowed 2 hours of reperfusion prior to sacrifice. Hemodynamics expressed as the heart rate blood pressure product (RPP) was assessed continuously. Echocardiographic LV ejection fraction (LVEF) was measured at baseline, end of ischemia (pre-TGT) and pre-sacrifice. Device success was defined as successful TGT delivery.
Interventional Coronary and Surgical Procedures: A 6F Hockey stick guide catheter cannulated the left main coronary artery. The TGT wire, flushed with heparin, was positioned in the distal left anterior descending (LAD) artery. After a midline sternotomy acute regional myocardial ischemia was induced by occluding the mid portion of the LAD with a surgical suture. […]

apoptosis = assay: TUNEL staining for apoptosis in heart tissue sections; conditions: heart tissue after 2 h reperfusion; non-discriminatory vs saline
Caspase 3 = assay: Western blotting of infarct border area: Caspase 3; conditions: infarct border area after 2 h reperfusion, p=0.007 vs saline
Description: Interventional Coronary and Surgical Procedures: A 6F Hockey stick guide catheter cannulated the left main coronary artery. The TGT wire, flushed with heparin, was positioned in the distal left anterior descending (LAD) artery. After a midline sternotomy acute regional myocardial ischemia was induced by occluding the mid portion of the LAD with a surgical suture. Fluoroscopy ensured the suture was above the infusion ports of the TGT wire with distal TIMI 0 flow. Lidocaine was given as a bolus and infusion at the onset of ischemia and for the remainder of the experiment. TGT injection was performed at the end of a 30 minute ischemic period after which the suture was removed to allow reperfusion. Restoration of TIMI 3 flow was documented by cine-angiography. Animals were sacrificed after 2 hours of reperfusion and the hearts were harvested for immunohistochemistry. Western Blotting: After cardiac harvest the infarct border area was immediately frozen in liquid nitrogen. […] Supernatant protein concentration was measured using a BCA assay kit (Pierce Laboratories). […] After 3 TBST washings the immunocomplexes were developed using an enhanced HPO/luminol chemiluminescence reaction, and recorded photographically (Hyper film ECL; Amersham) by 10 s to 3 min exposure. […] Quantification was performed using scanning densitometry with image J software.

[3] = system: acute regional myocardial ischemia and reperfusion (LAD occlusion); assay: Hemodynamic assessment (rate pressure product) in swine LAD ischemia-reperfusion with Trans Guide wire Therapy; conditions: for rate pressure product (RPP), Pre-sacrifice: after 2 h reperfusion, chloramphenicol 10 mg TGT plus 40 mg/Kg IV just prior to reperfusion, p=0.02 vs saline
Protocol: as §1
Animal Preparation: Female juvenile domestic swine, weight 30-50 kg, were studied. […] Anaesthesia was induced with an intramuscular injection of ketamine (20 mg/kg) followed by inhaled isoflurane (0.5-2.0%). After general anaesthesia the femoral artery was cannulated. A pulmonary artery cannula was positioned via the right internal jugular vein. All animals received 250 mg of IV aspirin and 100 U/Kg units of heparin intravenously to achieve an ACT above 250 s.
(§2) Interventional Coronary and Surgical Procedures: A 6F Hockey stick guide catheter cannulated the left main coronary artery. The TGT wire, flushed with heparin, was positioned in the distal left anterior descending (LAD) artery. After a midline sternotomy acute regional myocardial ischemia was induced by occluding the mid portion of the LAD with a surgical suture. Fluoroscopy ensured the suture was above the infusion ports of the TGT wire with distal TIMI 0 flow. Lidocaine was given as a bolus and infusion at the onset of ischemia and for the remainder of the experiment. TGT injection was performed at the end of a 30 minute ischemic period after which the suture was removed to allow reperfusion. Restoration of TIMI 3 flow was documented by cine-angiography. Animals were sacrificed after 2 hours of reperfusion and the hearts were harvested for immunohistochemistry.
Hemodynamic Assessment: There was continuous measurement of hemodynamic parameters. Cardiac output was measured immediately before and after ischemia and pre-sacrifice. Hemodynamic stability and contractility were supported medically by IV dopamine, and epinephrine to maintain MAP above 50 mmg. Boluses of atropine (1 mg) and lidocaine (100 mg) were given as appropriate for treatment of arrhythmias. […] Each administration of these drugs was recorded as 1 arbitrary unit. […]

[4] = system: acute regional myocardial ischemia and reperfusion (LAD occlusion); assay: Supportive drug therapy required during ischemia-reperfusion (arbitrary units); conditions: chloramphenicol 10 mg TGT plus 40 mg/Kg IV
Protocol: as §1, §2
Hemodynamic Assessment: There was continuous measurement of hemodynamic parameters. Cardiac output was measured immediately before and after ischemia and pre-sacrifice. Hemodynamic stability and contractility were supported medically by IV dopamine, and epinephrine to maintain MAP above 50 mmg. Boluses of atropine (1 mg) and lidocaine (100 mg) were given as appropriate for treatment of arrhythmias. IV calcium and bicarbonate were given in appropriate doses during cardiopulmonary resuscitation. Each administration of these drugs was recorded as 1 arbitrary unit.
The latter was prepared as 10 mg in 0.5 cc of saline for TGT in addition to 40 mg/Kg IV. Injections were performed just prior to reperfusion.

[5] = each administration recorded as 1 arbitrary unit, group sum

O=C(N[C@H](CO)[C@H](O)c1ccc([N+](=O)[O-])cc1)C(Cl)Cl [chloramphenicol]
LV ejection fraction, end of ischemia ([1]; after 30 minute ischemia, pre-TGT, chloramphenicol TGT group): 27.3%+/−3.8
LV ejection fraction, pre-sacrifice (after reperfusion) ([1]; after 2 h reperfusion, chloramphenicol 10 mg TGT plus 40 mg/Kg IV, p<0.001 vs end of ischemia): 43.3%+/−11.4
animals that survived the period of reperfusion [2]: 5
TUNEL staining (apoptosis): weakly positive
caspase-3 band intensity by densitometry (Caspase 3): 346±110
rate pressure product (RPP), Pre-sacrifice [3]: 3720.0 (+/−510.2)
rate pressure product (RPP), Pre-sacrifice ([3]; listed as Chloramphenicol): 3720.0 +/− 510.2*
rate pressure product (RPP), Baseline ([3]; baseline, before ischemia and before TGT, chloramphenicol TGT group (n=5)): 3980.8 +/− 594.5
rate pressure product (RPP), End of ischemia ([3]; end of 30 min ischemia, pre-TGT, chloramphenicol TGT group (n=5)): 2969.5 +/− 687.2
supportive therapy: Atropine [4, 5]: 2.5 arbitrary units
supportive therapy: Bicarbonate [4, 5]: 1 arbitrary units
supportive therapy: Dopamine [4, 5]: 1 arbitrary units
supportive therapy: Epinephrine [4, 5]: 1 arbitrary units
supportive therapy: Lidocaine [4, 5]: 4.5 arbitrary units
supportive therapy: calcium [4, 5]: 0 arbitrary units
supportive therapy / intravenous inotrope support, mean ([4]; mean (+/-), p=0.028 vs saline): 1.67 (+/−1.6) arbitrary units
supportive therapy: Total ([4]; sum over all support drugs): 10 arbitrary units
